Assays:
Assay type in all cases: in vivo
Setaria viridis (SETVI) = test: Test 1B glasshouse assay, post-emergence herbicidal activity against grassy weeds; details: 14 DAA
Procedure: (§1) Biological Example 1B tests the herbicidal activity of“technical” compounds (i.e. compounds not previously formulated before the test), as the herbicides under test.
(§2) An “instant formulation”, known as the “IF50”, containing 50 g/liter (i.e. 5% w/v) of the “technical” (i.e. unformulated) active ingredient (i.e. the herbicide under test), is prepared by dissolving the active ingredient in a mixture of organic solvents and emulsifier, details of which are provided in the Table below.
(§3) This IF50 is mixed with a small, variable amount of acetone to aid dissolution, before addition of a 0.5% v/v aqueous solution of the adjuvant Adigor™ (an adjuvant containing rapeseed oil methyl ester, ethoxylated alcohols, and a mixture of heavy aromatic hydrocarbons, e.g. available from Syngenta), as the aqueous diluent, to form an aqueous spray solution which contains a predetermined concentration of the active ingredient (which varies depending on the application rate of the active ingredient to the plants) and 0.5% v/v of the adjuvant Adigor™. This aqueous spray solution is suitable for spraying onto plants.
(§4) Seeds of a variety of test species are sown in standard soil in pots. After cultivation for 14 days under controlled conditions in a glasshouse (at 22/16° C., day/night; 16 hours light; 65% humidity), the plants are sprayed post-emergence with the above-mentioned aqueous spray solution containing inter alia the “technical” active ingredient (i.e. the herbicide under test) and the adjuvant Adigor™.
(§5) The test plants are then grown on under controlled conditions in the glasshouse (at 22/16° C., day/night; 16 hours light; 65% humidity) and are watered twice daily. 14 days after application of the test herbicide, the test is evaluated visually for percentage phytotoxicity to the plant (where 100%=total damage to plant; 0%=no damage to plant).
(§6) More specifically, post-emergence herbicidal activity (phytotoxicity) data, on certain tested grassy monocotyledonous weeds (and/or plants of the type Gramineae) and cereal crops in the glasshouse, are measured 14 days after application of the herbicide (14 DAA), typically for inter alia one or more of the following application rates: • (a) a post-emergence application rate of 60 g/ha of the test herbicide with or without 50 g/ha of cloquintocet-mexyl safener, and • (b) a post-emergence application rate of 90 g/ha of the test herbicide with 50 g/ha of cloquintocet-mexyl safener, and • (c) a post-emergence application rate of 120 g/ha of the test herbicide with 50 g/ha of cloquintocet-mexyl safener.
(§7) The cloquintocet-mexyl, when used, is present in the formulation containing the herbicide under test dissolved in acetone plus IF50.
(§8) The range of herbicide application rates tested sometimes includes application rates other than those shown above, and the rates can vary depending on the herbicide under test.
(§9) Herbicidal activity (phytotoxicity) is evaluated visually, and an assessed percentage phytotoxicity score is given for each herbicidal application on each plant species (with 100%=total damage to plant; 0%=no damage to plant; the assessment is recorded in increments of 1%). Two replicates are made for each experiment, and the mean herbicidal activity (phytotoxicity) data is reported.
(§10) For compounds A34, A98, A99, A87, A100, A101, A89, A120, A120A, A120B, A23, A127, A128, A89, A112 and A113 the tested weeds were as follows: Avena fatua (AVEFA), Lolium multiflorum (LOLMU), Setaria viridis (SETVI), Poa annua (POAAN), Alopecurus myosuroides (ALOMY). All five of these are grassy monocotyledonous weeds. Except for SETVI, these are all “cool-season” grassy monocotyledonous weeds.

[1] = tested on: Alopecurus myosuroides (ALOMY); test: as above; details: 14 DAA
Procedure: as §1, §2, §3, §4, §5, §6, §7, §8, §9, §10

Avena fatua (AVEFA) = test: as above; details: 14 DAA
Procedure: as §1, §2, §3, §4, §5, §6, §7, §8, §9, §10

Poa annua (POAAN) = test: as above; details: 14 DAA
Procedure: as §1, §2, §3, §4, §5, §6, §7, §8, §9, §10

[2] = tested on: Lolium multiflorum (LOLMU); test: as above; details: 14 DAA
Procedure: as §1, §2, §3, §4, §5, §6, §7, §8, §9, §10

[3] = tested on: Spring Barley “Harrington”; test: Test 1B glasshouse assay, post-emergence herbicidal activity against cereal crops
Procedure: as §1, §2, §3, §4, §5, §6, §7, §8, §9

Winter Wheat “Hereward” = test: as above
Procedure: as §1, §2, §3, §4, §5, §6, §7, §8, §9

Winter Barley “Suzuka” = test: as above
Procedure: as §1, §2, §3, §4, §5, §6, §7, §8, §9

[4] = 30 g/ha herbicide, 50 g/ha cloquintocet-mexyl
[5] = 45 g/ha herbicide, 50 g/ha cloquintocet-mexyl
[6] = 60 g/ha herbicide, 0 g/ha cloquintocet-mexyl
[7] = 60 g/ha herbicide, 50 g/ha cloquintocet-mexyl
[8] = herbicide 30 g/ha, cloquintocet-mexyl 50 g/ha
[9] = herbicide 45 g/ha, cloquintocet-mexyl 50 g/ha
[10] = herbicide 60 g/ha, cloquintocet-mexyl 0 g/ha
[11] = herbicide 60 g/ha, cloquintocet-mexyl 50 g/ha

Cc1cc(C)c(C2C(=O)C[C@@H](CCNC(=O)c3ccc(Br)cn3)C2=O)c(C)c1 (stereo partly shown) [Compound A120A]
Post-emergence herbicidal activity, percentage phytotoxicity, SETVI (Setaria viridis (SETVI); [4]): 100%
Post-emergence herbicidal activity, percentage phytotoxicity, SETVI (Setaria viridis (SETVI); [5]): 100%
Post-emergence herbicidal activity, percentage phytotoxicity, SETVI (Setaria viridis (SETVI); [6]): 100%
Post-emergence herbicidal activity, percentage phytotoxicity, SETVI (Setaria viridis (SETVI); [7]): 100%
Post-emergence herbicidal activity, percentage phytotoxicity, ALOMY [1, 4]: 80%
Post-emergence herbicidal activity, percentage phytotoxicity, ALOMY [1, 5]: 88%
Post-emergence herbicidal activity, percentage phytotoxicity, ALOMY [1, 6]: 95%
Post-emergence herbicidal activity, percentage phytotoxicity, ALOMY [1, 7]: 90%
Post-emergence herbicidal activity, percentage phytotoxicity, AVEFA (Avena fatua (AVEFA); [4]): 90%
Post-emergence herbicidal activity, percentage phytotoxicity, AVEFA (Avena fatua (AVEFA); [5]): 95%
Post-emergence herbicidal activity, percentage phytotoxicity, AVEFA (Avena fatua (AVEFA); [6]): 97%
Post-emergence herbicidal activity, percentage phytotoxicity, AVEFA (Avena fatua (AVEFA); [7]): 97%
Post-emergence herbicidal activity, percentage phytotoxicity, POAAN (Poa annua (POAAN); [4]): 3%
Post-emergence herbicidal activity, percentage phytotoxicity, POAAN (Poa annua (POAAN); [5]): 5%
Post-emergence herbicidal activity, percentage phytotoxicity, POAAN (Poa annua (POAAN); [6]): 30%
Post-emergence herbicidal activity, percentage phytotoxicity, POAAN (Poa annua (POAAN); [7]): 10%
Post-emergence herbicidal activity, percentage phytotoxicity, LOLMU [2, 4]: 97%
Post-emergence herbicidal activity, percentage phytotoxicity, LOLMU [2, 5]: 100%
Post-emergence herbicidal activity, percentage phytotoxicity, LOLMU [2, 6]: 100%
Post-emergence herbicidal activity, percentage phytotoxicity, LOLMU [2, 7]: 100%
Percentage Phytotoxicity Spring Barley “Harrington” [3, 8]: 30%
Percentage Phytotoxicity Spring Barley “Harrington” [3, 9]: 60%
Percentage Phytotoxicity Spring Barley “Harrington” [3, 10]: 85%
Percentage Phytotoxicity Spring Barley “Harrington” [3, 11]: 73%
Percentage Phytotoxicity Winter Wheat “Hereward” (Winter Wheat “Hereward”; [8]): 53%
Percentage Phytotoxicity Winter Wheat “Hereward” (Winter Wheat “Hereward”; [9]): 60%
Percentage Phytotoxicity Winter Wheat “Hereward” (Winter Wheat “Hereward”; [10]): 73%
Percentage Phytotoxicity Winter Wheat “Hereward” (Winter Wheat “Hereward”; [11]): 65%
Percentage Phytotoxicity Winter Barley “Suzuka” (Winter Barley “Suzuka”; [8]): 23%
Percentage Phytotoxicity Winter Barley “Suzuka” (Winter Barley “Suzuka”; [9]): 75%
Percentage Phytotoxicity Winter Barley “Suzuka” (Winter Barley “Suzuka”; [10]): 93%
Percentage Phytotoxicity Winter Barley “Suzuka” (Winter Barley “Suzuka”; [11]): 83%

Cc1cc(C)c(C2C(=O)C[C@H](CCNC(=O)c3ccc(Br)cn3)C2=O)c(C)c1 (stereo partly shown) [Compound A120B]
Post-emergence herbicidal activity, percentage phytotoxicity, SETVI (Setaria viridis (SETVI); [4]): 40%
Post-emergence herbicidal activity, percentage phytotoxicity, SETVI (Setaria viridis (SETVI); [5]): 65%
Post-emergence herbicidal activity, percentage phytotoxicity, SETVI (Setaria viridis (SETVI); [6]): 68%
Post-emergence herbicidal activity, percentage phytotoxicity, SETVI (Setaria viridis (SETVI); [7]): 68%
Post-emergence herbicidal activity, percentage phytotoxicity, ALOMY [1, 4]: 43%
Post-emergence herbicidal activity, percentage phytotoxicity, ALOMY [1, 5]: 58%
Post-emergence herbicidal activity, percentage phytotoxicity, ALOMY [1, 6]: 73%
Post-emergence herbicidal activity, percentage phytotoxicity, ALOMY [1, 7]: 70%
Post-emergence herbicidal activity, percentage phytotoxicity, AVEFA (Avena fatua (AVEFA); [4]): 3%
Post-emergence herbicidal activity, percentage phytotoxicity, AVEFA (Avena fatua (AVEFA); [5]): 10%
Post-emergence herbicidal activity, percentage phytotoxicity, AVEFA (Avena fatua (AVEFA); [6]): 38%
Post-emergence herbicidal activity, percentage phytotoxicity, AVEFA (Avena fatua (AVEFA); [7]): 48%
Post-emergence herbicidal activity, percentage phytotoxicity, POAAN (Poa annua (POAAN); [4]): 0%
Post-emergence herbicidal activity, percentage phytotoxicity, POAAN (Poa annua (POAAN); [5]): 0%
Post-emergence herbicidal activity, percentage phytotoxicity, POAAN (Poa annua (POAAN); [6]): 4%
Post-emergence herbicidal activity, percentage phytotoxicity, POAAN (Poa annua (POAAN); [7]): 4%
Post-emergence herbicidal activity, percentage phytotoxicity, LOLMU [2, 4]: 58%
Post-emergence herbicidal activity, percentage phytotoxicity, LOLMU [2, 5]: 73%
Post-emergence herbicidal activity, percentage phytotoxicity, LOLMU [2, 6]: 83%
Post-emergence herbicidal activity, percentage phytotoxicity, LOLMU [2, 7]: 73%
Percentage Phytotoxicity Spring Barley “Harrington” [3, 8]: 3%
Percentage Phytotoxicity Spring Barley “Harrington” [3, 9]: 10%
Percentage Phytotoxicity Spring Barley “Harrington” [3, 10]: 53%
Percentage Phytotoxicity Spring Barley “Harrington” [3, 11]: 23%
Percentage Phytotoxicity Winter Wheat “Hereward” (Winter Wheat “Hereward”; [8]): 7%
Percentage Phytotoxicity Winter Wheat “Hereward” (Winter Wheat “Hereward”; [9]): 10%
Percentage Phytotoxicity Winter Wheat “Hereward” (Winter Wheat “Hereward”; [10]): 58%
Percentage Phytotoxicity Winter Wheat “Hereward” (Winter Wheat “Hereward”; [11]): 13%
Percentage Phytotoxicity Winter Barley “Suzuka” (Winter Barley “Suzuka”; [8]): 3%
Percentage Phytotoxicity Winter Barley “Suzuka” (Winter Barley “Suzuka”; [9]): 9%
Percentage Phytotoxicity Winter Barley “Suzuka” (Winter Barley “Suzuka”; [10]): 75%
Percentage Phytotoxicity Winter Barley “Suzuka” (Winter Barley “Suzuka”; [11]): 13%

Reference: patent US9808003B2, “Herbicidally active 2-(substituted-phenyl)-cyclopentane-1,3-dione compounds and derivatives thereof” (Syngenta Limited, priority 2013, dated 2017)
